Data reported in patent US20250127790A1, “COMBINATION THERAPY USING VPS34 INHIBITORS” (Deciphera Pharmaceuticals, LLC, priority 2021, published 2025).

Key:
[1] = system: 786-O renal cell carcinoma cells; assay: qRT-PCR with siRNA knockdown of STING pathway genes, 786-O cells; assay type: cell-based, Human; conditions: 24 h, vs compound alone; for IFNB1, CCL5 and CXCL10 expression with siRNA knockdown of CGAS / IRF7 expression with siRNA knockdown of CGAS: siCGAS; for IFNB1, CCL5 and CXCL10 expression with siRNA knockdown of CGAS / IRF7 expression with siRNA knockdown of CGAS / IFNB1, CCL5 and CXCL10 expression with siRNA knockdown of STING / IRF7 expression with siRNA knockdown of STING: 2 μM; for IFNB1, CCL5 and CXCL10 expression with siRNA knockdown of STING / IRF7 expression with siRNA knockdown of STING: siSTING; for IFNB1 expression with siRNA knockdown of TBK1 / IRF7, CCL5 and CXCL10 expression with siRNA knockdown of TBK1: siTBK1, 2 μM
Me30966 melanoma cells = assay: qRT-PCR with siSTING, Me30966 cells; assay type: cell-based, Human; conditions: 2 μM, 24 h; for increase in CCL5 mRNA expression / increase in CXCL10 mRNA expression / increase in IFNB1 mRNA expression: siSCR
Protocol: (§1) Me30966 cells were transfected with siSCR or siSTING. After 48 h, cells were treated with DMSO or 2 μM of VPS34 inhibitors (Compound 1 or Compound 2) for 24 h. Cells were washed with PBS and RNA was isolated using the PureLink RNA kit (#12183018A, Thermo Fisher Scientific) according to the manufacturer's protocol. Genomic DNA was removed using DNA-binding columns (RNeasy plus kit, #74134, Qiagen) and/or DNase treatment (#12185010, Thermo Fisher Scientific). RNA was quantified using NanoDrop (Thermo Fisher Scientific) and 50 ng/μL RNA was used for cDNA synthesis with SuperScript IV VILO Master Mix (#11756050, Thermo Fisher Scientific). Quantitative RT-PCR (qRT-PCR) was run with diluted cDNA (1:25 or 1:12.5), PowerUp SYBR Green Master Mix (#A25741, Thermo Fisher Scientific), and 200 nM primers (see below) on a CFX Connect RT-PCR system (BioRad). Data was analyzed using the ΔΔCT method. Results are mean±SEM of three independent experiments.

[2] = system: CT26 colorectal cancer cells; assay: Cytokine secretion assay, combination with cGAMP, CT26 cells; assay type: cell-based, mouse; conditions: 24 hours, 5 μM Compound 1 or 10 μM Compound 2, 10 mg/mL cGAMP
Protocol: (§2) CT26 cells were treated for 24 hours with DMSO or VPS34 inhibitors (5 μM Compound 1 or 10 μM Compound 2) in combination with 10 mg/mL STING agonist cGAMP (green bars). Cells were washed with PBS and RNA was isolated using the PureLink RNA kit (#12183018A, Thermo Fisher Scientific) according to the manufacturer's protocol. Genomic DNA was removed using DNA-binding columns (RNeasy plus kit, #74134, Qiagen) and/or DNase treatment (#12185010, Thermo Fisher Scientific). RNA was quantified using NanoDrop (Thermo Fisher Scientific) and 50 ng/μL RNA was used for cDNA synthesis with SuperScript IV VILO Master Mix (#11756050, Thermo Fisher Scientific). Quantitative RT-PCR (qRT-PCR) was run with diluted cDNA (1:25 or 1:12.5), PowerUp SYBR Green Master Mix (#A25741, Thermo Fisher Scientific), and 200 nM primers (see below) on a CFX Connect RT-PCR system (BioRad). Data was analyzed using the ΔΔCT method. Results are mean±SEM of three independent experiments.
(§3) Cell culture medium was centrifuged at 1600 rpm for 10 min at 4° C. and obtained supernatant stored at −80° C. Cytokine levels were quantified using following Meso Scale Discovery (MSD) assays: mouse U-PLEX RANTES/CCL5 (#K152A2K) and U-PLEX IP-10/CXCL10 (#K152UFK). Assays were run on the SECTOR Quickplex Imager and analyzed using Discovery Workbench version 4.0 (MSD).

YUMM 1.7 melanoma cells = assay: Cytokine secretion assay, combination with cGAMP, YUMM1.7 cells; assay type: cell-based, mouse; conditions: 24 hours, 5 μM Compound 1 or 10 μM Compound 2, 10 mg/ml cGAMP
Protocol: as §2, with “YUMM1.7” for “CT26”, “mg/ml” for “mg/mL”
as §3

[3] = system: 786-O renal cell carcinoma cells; assay: qRT-PCR with siRNA knockdown of STING pathway genes, 786-O cells; assay type: cell-based, Human; conditions: 2 μM, 24 h
Protocol: as §1, with “Quantitative reverse-transcriptase polymerase chain reaction (RT-PCR) assay 786-O cells were grown in RPMI-1640 medium containing 10% fetal bovine serum. Cells were then incubated for 2 days at 37 degrees Celsius, 5% CO2, and 95% humidity. A498” for “Me30966”, “scrambled siRNA control (siSCR)” for “siSCR”, “siRNA targeting TBK1 (siTBK1), STING (siSTING) or CGAS (siCGAS).” for “siSTING.”, “h” for “h,”, “inhibitor” for “inhibitors”

## C[C@@H]1COCCN1c1cc(N2CCCC[C@@H]2C(F)(F)F)[nH]c(=O)c1 [Compound 1, 4-((R)-3-methylmorpholino)-6-((R)-2-(trifluoromethyl)piperidin-1-yl)pyridin-2(1H)-one]
[1]
  IFNB1, CCL5 and CXCL10 expression with siRNA knockdown of CGAS: complete ablation
  IRF7 expression with siRNA knockdown of CGAS: significant decreases
  IFNB1, CCL5 and CXCL10 expression with siRNA knockdown of STING: complete ablation
  IRF7 expression with siRNA knockdown of STING: significant decreases
  IFNB1 expression with siRNA knockdown of TBK1: near complete ablation
  IRF7, CCL5 and CXCL10 expression with siRNA knockdown of TBK1: modest decreases
Me30966 melanoma cells
  increase in CCL5 mRNA expression: ~10 fold
  increase in CXCL10 mRNA expression: ~10 fold
  increase in IFNB1 mRNA expression: ~5 fold
  CCL5 mRNA increase with siSTING: abolished
  CXCL10 mRNA increase with siSTING: abolished
  IFNB1 mRNA increase with siSTING: abolished
[2]
  CCL5 protein secretion: increased
  CXCL10 protein secretion: increased
YUMM 1.7 melanoma cells
  CCL5 protein secretion: increased
  CXCL10 protein secretion: increased
[3]
  increase in mRNA expression of CCL5: > 3 fold
  increase in mRNA expression of CXCL10: ~5 fold
  increase in mRNA expression of IFNB1: > 5 fold
  increase in mRNA expression of IRF7: > 2 fold

## C[C@@H]1COCCN1c1cc(=O)n2c(n1)N(Cc1cncc(Cl)c1)[C@H](C(F)(F)F)CC2 [Compound 2, (S)-9-((5-chloropyridin-3-yl)methyl)-2-((R)-3-methylmorpholino)-8-(trifluoromethyl)-6,7,8,9-tetrahydro-4H-pyrimido[1,2-a]pyrimidin-4-one]
[1]
  IFNB1, CCL5 and CXCL10 expression with siRNA knockdown of CGAS: complete ablation
  IRF7 expression with siRNA knockdown of CGAS: significant decreases
  IFNB1, CCL5 and CXCL10 expression with siRNA knockdown of STING: complete ablation
  IRF7 expression with siRNA knockdown of STING: significant decreases
  IFNB1 expression with siRNA knockdown of TBK1: near complete ablation
  IRF7, CCL5 and CXCL10 expression with siRNA knockdown of TBK1: modest decreases
Me30966 melanoma cells
  increase in CCL5 mRNA expression: ~10 fold
  increase in CXCL10 mRNA expression: ~10 fold
  increase in IFNB1 mRNA expression: ~5 fold
  CCL5 mRNA increase with siSTING: abolished
  CXCL10 mRNA increase with siSTING: abolished
  IFNB1 mRNA increase with siSTING: abolished
[2]
  CCL5 protein secretion: increased
  CXCL10 protein secretion: increased
YUMM 1.7 melanoma cells
  CCL5 protein secretion: increased
  CXCL10 protein secretion: increased
[3]
  increase in mRNA expression of CCL5: ~4 fold
  increase in mRNA expression of CXCL10: ~5 fold
  increase in mRNA expression of IFNB1: ~4 fold
  increase in mRNA expression of IRF7: ~3 fold
